Reference: patent publication US9901573B2, “Compositions, methods, and kits for regulating energy metabolism” (NuSirt Sciences, Inc., priority 2012, dated 2018)
Marks after values point to notes of the source that are not given here.

System: 3T3-L1 adipocytes
Assay: Intracellular Ca2+ by fura-2 imaging in adipocytes
Assay type: cell-based
Procedure: Cell culture: 3T3-L1 pre-adipocytes were incubated at a density of 8000 cells/cm^2 (10 cm^2 dish) and grown in the absence of insulin in Dulbecco's modified Eagle's medium (DMEM) containing 10% FBS and antibiotics (1% penicillin-streptomycin)(adipocyte medium) at 37° C. in 5% CO2 in air. Confluent pre-adipocytes were induced to differentiate with a standard differentiation medium consisting of DMEM-F10 (1:1, vol/vol) medium supplemented with 1% fetal bovine serum (FBS), 250 nM dexamethasone (DEXA), isobutylmethylxanthine (IBMX) (0.5 mM) and antibiotics. Pre-adipocytes were maintained in this differentiation medium for 3 days (unless specifically indicated) and subsequently cultured in adipocyte medium. Cultures were re-fed every 2-3 days to allow 90% cells to reach fully differentiation before treatment.
Intracellular Ca^2+ ([Ca^2+]i): [Ca^2+]i was measured using a fura-2 dual wavelength fluorescence imaging system. Adipocytes were plated and differentiated in 35 mm dishes with glass coverslips (P35G-0-14-C, MatTek Corporation). Prior to [Ca^2+]i measurement, cells were preincubated in serum-free medium overnight and rinsed with Hepes Balanced Salt Solution (HBSS) containing the following components (in mM): NaCl 138, CaCl2 1.8, MgSO4 0.8, NaH2PO4 0.9, NaHCO3 4, glucose 5, glutamine 6, Hepes 20, and bovine serum albumin 1%. Cells were loaded with fura-2 acetoxymethyl ester (AM) (10 μM) in the same buffer for 2 hr at 37° C. in a dark incubator with 5% CO2. To remove extracellular dye, cells were rinsed with HBSS 3 times and then postincubated at room temperature for an additional 1 hr for complete hydrolysis of cytoplasmic fura-2 AM. The dishes with dye-loaded cells were mounted on the stage of Nikon TMS-F fluorescence inverted microscope with a Cohu 4915 CCD camera. Fluorescent images were captured alternatively at excitation wavelength of […] with an emission wavelength of 520 nm. [Ca^2]i was calculated using a standard ratio equation. Each analysis evaluated responses of 8-10 representative whole cells. Images were analyzed with InCytIm2 version 4.62 imaging software (Intracellular Imaging, Cincinnati, Ohio). Images were calibrated using a fura-2 calcium imaging calibration kit (Molecular Probes, Eugene, Oreg.) to create a calibration curve in solution, and cellular calibration was accomplished using digitonin (25 μM) and pH 8.7 Tris-EGTA (100 mM) to measure maximal and minimal [Ca^2+]i levels.

CC(C)C[C@H](N)C(=O)O [Leucine, leucine]
Intracellular Ca2+ (Leucine 0.25 mM): 75.2^b ± nM | Intracellular Ca2+ (Leucine 0.5 mM): 83.7^b ± nM
